Structures are written as SMILES. Values joined by “and” are separate entries in the source; they are usually repeats but may differ in a detail not shown here. Identical values can stand only once.

The subject of the assay is MDA-MB-231 complex spheroids, growth inhibition. Put plainly: Anticancer human tumor MDA-MB-231 cell line growth inhibition [Asc].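 As to all read-outs here: spheroids exposed to compounds for 7 days.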 The settings on record: for viability, T/C: stronger effect = lower value. The procedure: Multicellular complex tumor spheroid response to apoptosis pathway targeting inhibitors Alrizomadlin, Pelcitoclax, and Dasminapant in combination with a variety of drugs and investigational agents in selected tumor cell lines
The MDM2 inhibitor alrizomadlin, the Bcl-2/Bcl-xL inhibitor pelcitoclax, and the IAPs inhibitor dasminapant were evaluated both individually and in combination with standard of care and investigational anticancer small molecules within a complex spheroid model of solid tumors. . Complex spheroids include a stromal component modeled by human endothelial cells (HUVEC) and fibroblasts modeled by human mesenchymal stem cells (MSCs). The concentration ranges selected for each drug and investigational agent were based upon clinically achievable concentrations if the clinical Cmax of the agent was known.
Compounds. The drugs and investigational agents: alrizomadlin (APG-115; NSC831270), pelcitoclax (APG-1252; NSC835773), dasminapant (APG-1387;NSC834197), TAK-243 (NSC785004), copanlisib (NSC809693), olaparib (NSC753686), talazoparib (NSC767125), cobimetinib (NSC 768068), eltanexor (KPT-8602, NSC 794443), abemaciclib (NSC 768073), sotorasib (NSC818433), adagrasib (NSC 831453), MRTX-1133 (NSC 836407), Iadademestat (ORY1001, NSC 806812), and RMC-4630 (NSC839698), were obtained from the NCI Developmental Therapeutics Program Chemical Repository. The FDA-approved anticancer drug set is available from the Developmental Therapeutics Program at https://dtp.cancer.gov/organization/dscb/obtaining/available plates.htm. […] The stock solutions were prepared in dimethyl sulfoxide (DMSO, Sigma-Aldrich, St. Louis, MO, cat. D2650) at 800-fold the tested concentration and stored at -70 degrees C prior to their use. All drugs and investigational agents were tested over a range starting from a high concentration at or near the clinical Cmax and decreasing in half-log increments. If the clinical Cmax for an agent had not been determined, the highest concentration tested was 10 microM.
The patient-derived cancer (PDC) cell lines include five colon adenocarcinomas: 186277-243-T-J2-PDC, 616215-338-R-J1-PDC, 439559-082-T-J2-PDC, 463943-066-T-J2-PDC, and 519858-162-T-J1-PDC; three pancreatic carcinomas: 323965-272-R-J2-PDC, 521955-158-R6-J3-PDC, and 521955-158-R2-J5-PDC; two uterine sarcomas: 327498-152-R-J2-PDC and 993429-296-R-J1-PDC; two rhabdomyosarcomas: 755483-174-R-J1-PDC and 772245-204-R-J1-PDC; two soft tissue sarcomas: 126254-015-R-J1-PDC and 494315-158-R-J1-PDC; two malignant fibrous histiocytomas: 317291-083-R-J1-PDC and 596521-263-R-J1-PDC; two breast carcinomas: 171881-019-R-J1-PDC and 885512-296-R-J2-PDC; and one ovarian carcinoma: 6556581-035-R-J-PDC were obtained from the NCI PDMR, (https://pdmr.cancer.gov). The established cell lines HSSY-2 synovial sarcoma (RRID:CVCL 8719), SYO-1 synovial sarcoma (RRID:CVCL_7146), MPNST malignant peripheral neural sheath tumor were obtained from the Sloan Kettering Institute. The following established cell lines were purchased from the American Type Culture Collection (ATCC, Manassas, VA), Sor the received from the NCI repository:, PANC-1 pancreatic carcinoma (CRL-1469, RRID:CVCL_0480), OVCAR-5 ovarian carcinoma (RRID:CVCL_1628), OVCAR-8 ovarian carcinoma (RRID:CVCL_1629), , MCF-7 breast carcinoma (CRL-12584, RRID:CVCL_0031), MDA-MB-231 breast carcinoma (CRL-12532, RRID:CVCL_0062), NCI-H1876 small cell lung carcinoma (CRL-5902, RRID:CVCL_1503), NCI-H510A small cell lung carcinoma (HTB-184, RRID:CVCL_1565), NCI-H1417 (CRL-5869, RRID:CVCL_1469), and NCI-H196 small cell lung carcinoma (CRL-5823, RRID:CVCL_1509). Dr. Peter Houghton (Greehey Children's Cancer Research Institute, University of Texas Health Science Center, San Antonio, TX) provided Rh-18 rhabdomyosarcoma (RRID:CVCL_1659). Pooled donor human umbilical vein endothelial cells (HUVEC, Lonza, cat. CC-2519) and human mesenchymal stem cells (hMSC, Lonza, cat. PT-2501) were purchased from Lonza (Walkersville, MD).
Cell Culture. […]

The mark [1] stands for this setting: curve of first compound, second compound 0.1 µM.
[2] abbreviates: curve of first compound, second compound 0.316 µM.
Where [3] appears, read: curve of first compound, second compound 1 µM.
The mark [4] stands for this setting: second compound 0.1 µM, first compound 0.0316 µM.
The mark [5] stands for this setting: second compound 0.1 µM, first compound 0.1 µM.
[6] abbreviates: second compound 0.1 µM, first compound 0.316 µM.
Where [7] appears, read: second compound 0.1 µM, first compound 1 µM.
[8] abbreviates: second compound 0.316 µM, first compound 0.0316 µM.
[9] abbreviates: second compound 0.316 µM, first compound 0.1 µM.
The mark [10] stands for this setting: second compound 0.316 µM, first compound 0.316 µM.
Setting [11] is: second compound 0.316 µM, first compound 1 µM.
[12] abbreviates: second compound 1 µM, first compound 0.0316 µM.
[13] abbreviates: second compound 1 µM, first compound 0.1 µM.
Setting [14] is: second compound 1 µM, first compound 0.316 µM.
[15] abbreviates: second compound 1 µM, first compound 1 µM.

As for `C=C(F)C(=O)N1CCN(c2nc(OCC3CCCN3C)nc3c2CCN(c2cccc4cccc(Cl)c24)C3)CC1CC#N` (stereo not drawn) + Cc1c(S(C)(=O)=O)c(-c2cc(F)cc(N3CCN(c4ccc(NS(=O)(=O)c5ccc(NC(CCN6CCC(C(=O)OCCCP(=O)(O)O)CC6)CSc6ccccc6)c(S(=O)(=O)C(F)(F)F)c5)cc4)CC3)c2)c(-c2ccc(Cl)cc2)n1C(C)C, the IC50 was determined as 2.29 µM under setting [1]; 2.11 µM under setting [2]; 1.85 µM under setting [3]; 1.74 µM (curve of first compound, second compound 3.16 µM); 1.71 µM (curve of first compound, second compound 10 µM). Moreover, the viability, T/C was 92.2% under setting [4]; 97.2% under setting [5]; 97.2% under setting [6]; 101% under setting [7]; 31.6% (second compound 0.1 µM, first compound 3.16 µM); 0.12% (second compound 0.1 µM, first compound 10 µM). Also, the viability, T/C is 106% under setting [8]; 108% under setting [9]; 106% under setting [10]; 109% under setting [11]; 18.6% (second compound 0.316 µM, first compound 3.16 µM); 0.09% (second compound 0.316 µM, first compound 10 µM). The viability, T/C is 103% under setting [12]; 100% under setting [13]; 97.5% under setting [14]; 97.4% under setting [15]; 8.81% (second compound 1 µM, first compound 3.16 µM); 0.09% (second compound 1 µM, first compound 10 µM). For the same compound, the viability, T/C runs as follows: (second compound 3.16 µM, first compound 0.0316 µM) 95.8%; (second compound 3.16 µM, first compound 0.1 µM) 93%; (second compound 3.16 µM, first compound 0.316 µM) 94.9%; (second compound 3.16 µM, first compound 1 µM) 91.8%; (second compound 3.16 µM, first compound 3.16 µM) 4.45%; (second compound 3.16 µM, first compound 10 µM) 0.09%. In addition, the viability, T/C runs as follows: (second compound 10 µM, first compound 0.0316 µM) 104%; (second compound 10 µM, first compound 0.1 µM) 100%; (second compound 10 µM, first compound 0.316 µM) 99.7%; (second compound 10 µM, first compound 1 µM) 91.3%; (second compound 10 µM, first compound 3.16 µM) 2.9%; (second compound 10 µM, first compound 10 µM) 0.14%.

`CCN1C(C(=O)NC23CCC(C(=O)O)(CC2)CC3)C(c2cccc(Cl)c2F)C2(C(=O)Nc3cc(Cl)ccc32)C12CCCCC2` (stereo not drawn): the viability, T/C (compound 0.00949 µM) was 96.1% and 106%; the viability, T/C (compound 0.03 µM) is 97.5% [middle of 15 runs]; the viability, T/C (compound 0.0949 µM) was 104% [middle of 15 runs]; the viability, T/C (compound 0.3 µM) is 105% [middle of 15 runs]; the viability, T/C (compound 0.949 µM) is 112% [middle of 15 runs]. The IC50 by setting is: (compound alone, run of 10/11/2022) above 3 µM; (curve of compound) above 3 µM.

In the case of `O=C(c1cc(Cc2n[nH]c(=O)c3ccccc23)ccc1F)N1CCN(C(=O)C2CC2)CC1`, the viability, T/C is, setting by setting: (compound 0.0316 µM) 95.2% and 99.3% and 106%; (compound 0.1 µM) 97.2% and 86.9% and 110%; (compound 0.316 µM) 92.7% and 75.9% and 84.1%; (compound 1 µM) 90.8% and 88.9% and 83.6%; (compound 3.16 µM) 87% and 88.3% and 49%. The IC50 (curve of compound) was > 10 µM and 3.18 µM.

Regarding `CCN1CCN(Cc2ccc(Nc3ncc(F)c(-c4cc(F)c5nc(C)n(C(C)C)c5c4)n3)nc2)CC1` + CNC(C)C(=O)NC1CN(S(=O)(=O)c2cccc(S(=O)(=O)N3CCC4CCC(C(=O)NC(c5ccccc5)c5ccccc5)N4C(=O)C(NC(=O)C(C)NC)C3)c2)CCC2CCC(C(=O)NC(c3ccccc3)c3ccccc3)N2C1=O, the IC50 by setting is: (curve of first compound, second compound 0.01 µM) below 0.00316 µM; (curve of first compound, second compound 0.0316 µM) below 0.00316 µM; under setting [1], below 0.00316 µM; under setting [2], below 0.00316 µM; under setting [3], below 0.00316 µM. Moreover, the viability, T/C was 2.49% (second compound 0.01 µM, first compound 0.00316 µM); 2.43% (second compound 0.01 µM, first compound 0.01 µM); 2.51% (second compound 0.01 µM, first compound 0.0316 µM); 1.88% (second compound 0.01 µM, first compound 0.1 µM); 2.98% (second compound 0.01 µM, first compound 0.316 µM); 2.28% (second compound 0.01 µM, first compound 1 µM). Moreover, the viability, T/C (second compound 0.0316 µM, first compound 0.00316 µM) was 1.93%; the viability, T/C (second compound 0.0316 µM, first compound 0.01 µM) was 1.53%; the viability, T/C (second compound 0.0316 µM, first compound 0.0316 µM) is 1.38%; the viability, T/C (second compound 0.0316 µM, first compound 0.1 µM) was 1.94%; the viability, T/C (second compound 0.0316 µM, first compound 0.316 µM) is 1.87%; the viability, T/C (second compound 0.0316 µM, first compound 1 µM) was 1.71%. The viability, T/C (second compound 0.1 µM, first compound 0.00316 µM) was 1.19%; the viability, T/C (second compound 0.1 µM, first compound 0.01 µM) is 1.19%; the viability, T/C under setting [4] was 1.61%; the viability, T/C under setting [5] was 1.32%; the viability, T/C under setting [6] was 1.44%; the viability, T/C under setting [7] is 1.16%. Further, the viability, T/C by setting is: (second compound 0.316 µM, first compound 0.00316 µM) 0.98%; (second compound 0.316 µM, first compound 0.01 µM) 1.26%; under setting [8], 1.17%; under setting [9], 1.28%; under setting [10], 1.38%; under setting [11], 1.15%. The viability, T/C (second compound 1 µM, first compound 0.00316 µM) was 1.1%; the viability, T/C (second compound 1 µM, first compound 0.01 µM) is 0.95%; the viability, T/C under setting [12] was 1.26%; the viability, T/C under setting [13] is 1.51%; the viability, T/C under setting [14] was 1.22%; the viability, T/C under setting [15] was 1.35%.
